Reference: patent publication US20210208149A1, “METHODS FOR CELL PROFILING” (priority 2018, published 2021)
Structures can show the parent of a compound that is named as a salt.

Assays:
U118 = conditions: GBM cell line U118; adapted from reference [13]; cited from earlier work
LN443 = conditions: GBM cell line LN443; adapted from reference [13]; cited from earlier work
U87 [1] = conditions: GBM cell line U87; adapted from reference [13]; cited from earlier work
A172 [2] = conditions: GBM cell line A172; adapted from reference [13]; cited from earlier work
A172 [3] = assay: Cell proliferation assay (CCK8), fixed concentration, reference GBM cell line A172; assay type: cell-based, human; conditions: fixed test concentration per compound, Table 1 log[M]: Trequinsin −4.6, Fucoxanthin −4.8, PF04449613 −4, PF02545920 −4.6, TIC10 −5, PF04691502 −6.6, GSK1059615 −5.5, LY294002 −5, Axitinib −5, Temozolomide −5
Experimental: (§1) A wide range of approved and exploratory drugs are profiled for their ability to inhibit GBM cell proliferation. Their EC50 values against each separate cell line in the set are determined. […] Screening is performed in 96-well or 384-well or 1536-well formats.
(§2) Data was obtained from testing these compounds at fixed concentrations against normal control cells (HEK293S) alongside reference GBM cells (U87 and A172), to obtain a dataset (Table 1) within which to compare the pharmacological and pharmaceutical properties of compounds across a chosen chemotyping panel.
(§3) Data Obtained from Screening Compounds within a Chemotyping Panel Against a Control Cell Line (HEK293S) and Two Reference GBM Cell Lines (U87 and A172)

HEK293S = assay: Cell proliferation assay (CCK8), fixed concentration, control cell line; assay type: cell-based; conditions: fixed test concentration per compound, Table 1 log[M]: Trequinsin −4.6, Fucoxanthin −4.8, PF04449613 −4, PF02545920 −4.6, TIC10 −5, PF04691502 −6.6, GSK1059615 −5.5, LY294002 −5, Axitinib −5, Temozolomide −5
Experimental: as §1, §2, §3

U87 [4] = assay: Cell proliferation assay (CCK8), fixed concentration, reference GBM cell line U87; assay type: cell-based, human; conditions: fixed test concentration per compound, Table 1 log[M]: Trequinsin −4.6, Fucoxanthin −4.8, PF04449613 −4, PF02545920 −4.6, TIC10 −5, PF04691502 −6.6, GSK1059615 −5.5, LY294002 −5, Axitinib −5, Temozolomide −5
Experimental: as §1, §2, §3

Compound | EC50 (U118) [nM] | EC50 (LN443) [nM] | EC50 (U87 [1]) [nM] | EC50 (A172 [2]) [nM] | % Inhibiton A172 (A172 [3]) [%] | % Proliferation A172 (A172 [3]) [%] | % Inhibiton HEK293 (HEK293S) [%] | % Proliferation HEK293 (HEK293S) [%] | % Inhibiton U87 (U87 [4]) [%] | % Proliferation U87 (U87 [4]) [%]
COCc1c(C(C)C)nc(C(C)C)c(/C=C/[C@@H](O)C[C@@H](O)CC(=O)O)c1-c1ccc(F)cc1 [Cericastatin] | 741 | 24 | 668 | 31.7 |  |  |  |  |  | 
CC(C)/N=c1\cc2n(-c3ccc(Cl)cc3)c3ccccc3nc-2cc1Nc1ccc(Cl)cc1 [Clofaximine] | 19700 | 20100 | 8610 | 11900 |  |  |  |  |  | 
Nc1ncnc2c1ncn2[C@H]1C[C@H](O)[C@@H](CO)O1 [Deoxyadenosine] | 590 |  | 2110 | 1770 |  |  |  |  |  | 
COc1cccc2c1C(=O)c1c(O)c3c(c(O)c1C2=O)C[C@@](O)(C(=O)CO)C[C@@H]3O[C@H]1C[C@H](N)[C@H](O)[C@H](C)O1 [Docorubicine] | 41.1 | 62.9 | 55.1 | 48.8 |  |  |  |  |  | 
COc1cccc2c1C(=O)c1c(O)c3c(c(O)c1C2=O)C[C@@](O)(C(=O)CO)C[C@@H]3O[C@H]1C[C@H](N)[C@@H](O)[C@H](C)O1 [Epirubicin] | 46.9 | 41.2 | 59.3 | 62.2 |  |  |  |  |  | 
O=C1NC(=O)/C(=C/c2ccc3nccc(-c4ccncc4)c3c2)S1 [GSK1059615] |  |  |  |  | 74 | 26 | 79 | 21 | 57 | 43
COC(=O)C[C@](O)(CCCC(C)(C)O)C(=O)O[C@@H]1C(OC)=C[C@]23CCCN2CCc2cc4c(cc2[C@H]13)OCO4 [Homoharringtonin] | 1140 | 28.9 | 22 |  |  |  |  |  |  | 
CCc1c2c(nc3ccc(OC(=O)N4CCC(N5CCCCC5)CC4)cc13)-c1cc3c(c(=O)n1C2)COC(=O)[C@]3(O)CC [Irinitecan] | 4600 | 4010 | 8030 | 7970 |  |  |  |  |  | 
O=c1cc(N2CCOCC2)oc2c(-c3ccccc3)cccc12 [LY294002] |  |  |  |  | 42 | 58 | 2 | 98 | −17 | 117
Cn1cc(-c2ccncc2)c(-c2ccc(OCc3ccc4ccccc4n3)cc2)n1 [PF02545920] |  |  |  |  | 80 | 20 | 84 | 16 | 30 | 70
C[C@H](c1nc2c(cnn2C2CCOCC2)c(=O)[nH]1)N1CC(Oc2ccccc2)C1 [PF04449613] |  |  |  |  | 61 | 39 | 10 | 90 | −14 | 114
COc1ccc(-c2cc3c(C)nc(N)nc3n([C@H]3CC[C@H](OCCO)CC3)c2=O)cn1 [PF04691502] |  |  |  |  | 44 | 56 | 45 | 55 | 35 | 65
O=C(O)C[C@H](O)C[C@H](O)/C=C/c1c(C2CC2)nc2ccccc2c1-c1ccc(F)cc1 [Pitavastatin] | 1920 | 83 | 3520 | 274 |  |  |  |  |  | 
Cc1ccccc1CN1C(=O)C2=C(CCN(Cc3ccccc3)C2)N2CCN=C12 [TIC10] |  |  |  |  | 68 | 32 | 83 | 17 | 27 | 73
Cn1nnc2c(C(N)=O)ncn2c1=O [Temozolomide] |  |  |  |  | 13 | 87 | 0 | 100 | 5 | 95
CC[C@@]1(O)C(=O)OCc2c1cc1n(c2=O)Cc2cc3c(CN(C)C)c(O)ccc3nc2-1 [Topetecan] | 184 | 136 | 167 | 649 |  |  |  |  |  | 
COc1cc2c(cc1OC)-c1c/c(=N\c3c(C)cc(C)cc3C)n(C)c(=O)n1CC2 [Trequinsin] |  |  |  |  | 37 | 63 | 59 | 41 | 11 | 89
CC(C)[C@]12O[C@H]1[C@@H]1O[C@]13[C@]1(O[C@H]1C[C@H]1C4=C(CC[C@@]13C)C(=O)OC4)[C@@H]2O [Triptolide] | 10.1 | 30.8 | 6.53 | 8.33 |  |  |  |  |  | 
CC[C@]1(O)C[C@H]2CN(CCc3c([nH]c4ccccc34)[C@@](C(=O)OC)(c3cc4c(cc3OC)N(C=O)[C@H]3[C@@](O)(C(=O)OC)[C@H](OC(C)=O)[C@]5(CC)C=CCN6CC[C@]43[C@@H]65)C2)C1 [Vincrinstine] | 1190 | 873 | 1320 | 42 |  |  |  |  |  | 
CC[C@]1(O)C[C@@H]2CN(CCc3c([nH]c4ccccc34)[C@@](C(=O)OC)(c3cc4c(cc3OC)N(C)[C@H]3[C@@](O)(C(N)=O)[C@H](O)[C@]5(CC)C=CCN6CC[C@]43[C@@H]65)C2)C1 [Vindesine sulfate] | 670 | 495 | 414 | 23.2 |  |  |  |  |  | 
Dactinmycin | 56.8 | 19.6 | 437 | 99.3 |  |  |  |  |  | 
Fucoxanthin |  |  |  |  | 66 | 34 | 76 | 24 | 26 | 74
